# Measured values taken from patent US20240423988A1, “Improvement of Tumor Immunogenicity by Means of Splicing-Controlling Compound” (Kyoto University, priority 2021, published 2024).
# What was measured:
# MC38 cells [1] = experiment: Cell proliferation and cell death, CCK-8 and LDH assays; format: cell-based, murine; details: concentrations effective in vivo
# Method: [FIG. 1-1] FIG. 1. Chemical activation of SRSFs exerts antitumor effects in a CD8^+ T cell-dependent manner and potentiates the response to PD-1 blockade. A: Experimental procedure involving an MC38 tumor-bearing model. B and C: Tumor volumes (B) and survival (C) are shown (n=12/group). ** represents p<0.01; and *** represents p<0.001. D and E: MC38 cells were treated with Compound 1 for 72 hours (D) or for the indicated time (E). Cell proliferation and cell death were measured using CCK-8 and LDH assays, respectively (n=3/group). F and G: Representative images (F) and quantitative data (G) of flow cytometry are shown (n=[…]/group). * represents p<0.05. H: Experimental procedure of antibody injection in an MC38 tumor-bearing model.
# First, in vivo activity was assessed using syngeneic MC38 tumors intradermally transplanted into […] mice (FIG. 1-1A).
# [2] = tested on: splenocytes (CD8^+ and CD4^+ T cells); experiment: Ex vivo splenocyte culture assay (antigen-independent T cell activation); format: cell-based, mice; details: 24 hours
# MC38 cells [3] = experiment: IFN-γ signaling and expression of MHC class I components and PD-L1 in MC38 cells; format: cell-based, murine; details: for decrease in PD-L1 expression on the cell surface / increase in H2-K^b expression: 72 hours
# Excerpt: MHC class I expressed in cancer cells is critical for neoantigen presentation, which is indispensable for CD8^+ T cell-dependent immune surveillance and tumor killing. To investigate whether Compound 1 modulates the neoantigen presentation pathway, first, the effects of Compound 1 on IFN-γ signaling and the expression of MHC class I components, including […] (B2M) and H2-K^b in MC38 cells, were examined because CD8^+ T cell-secreted IFN-γ is a major inducer of MHC class I components. […] In contrast, any changes in the expression of PD-L1 were not detected in host dendritic cells or macrophages. […] However, these alterations were likely not the functional mechanisms through which Compound 1 exerts its antitumor effects (FIGS. 1-2O and 1-2P), as enhanced antitumor effects of Compound 1 were observed when co-administered with αPD-L1.
# [4] = tested on: various murine cancer cell lines (LLC, Pan02, WEHI3, CT26, EG7, B16, MC38); experiment: RNA-seq analysis of splice-neoantigen producing events in various murine cancer cell lines; format: cell-based; details: LLC, Pan02, WEHI3, CT26, EG7, B16
# Method: [FIG. 5-2] Continuation of FIG. 5. D and E: RT-PCR analysis for splice-neoantigen coding forms (splice-NA forms) in MC38 cells treated with 10 µM Compound 1 or vehicle control (0.1% DMSO) for 6 hours. Actb served as a loading control. * represents p<0.05, ** represents p<0.01, and *** represents p<0.001. F: Splice-neoantigen producing rates calculated from RNA-seq data (n=3 biological replicates) are indicated as the APSI (Compound 1-DMSO). All data are shown as the mean±SEM. All experiments were performed at least twice. Statistical significance was determined using unpaired Student's t-test for (B) and (E).
# Then, whether the Compound 1-induced splice-neoantigens are shared across cancer type was examined using murine lung carcinoma LLC, pancreatic ductal adenocarcinoma Pan02, leukemia WEHI3, colorectal adenocarcinoma CT26, lymphoma EG7, and skin melanoma B16 cells.
# The effects of Compound 2 on RNA splicing events (splicing alterations) producing the aforementioned six splice-neoantigens in various murine cancer cell lines were investigated through RNA-Seq analysis in the same manner as in FIG. 5-2F, except that Compound 1 was replaced with Compound 2 (FIG. 8).
# [5] = tested on: IKBKAP gene with IVS20+6T>C mutation; details: in vitro and in vivo; cited from earlier work
structure (smiles),measurement,setting,value
Clc1nc(NCc2ccco2)c2[nH]cnc2n1 [Compound 1],cytotoxicity or cytostasis in vitro,MC38 cells [1],not associated with cytotoxicity or cytostasis
same,CD44^+ and CD69^+ marker expressions in CD8^+ and CD4^+ T cells,[2]; flow cytometry,no such effects
same,secretion of inflammatory cytokines IFN-γ and TNF-α,[2]; supernatant,not observed
same,phosphorylation of STAT1 and STAT3 and expression of B2M protein,MC38 cells [3],no such effects
same,decrease in PD-L1 expression on the cell surface,MC38 cells [3]; IFN-γ 0 ng/ml,3.8%
same,increase in H2-K^b expression,MC38 cells [3]; IFN-γ 0 ng/ml,11.1%
same,decrease in PD-L1 expression on the cell surface,MC38 cells [3]; IFN-γ 0.1 ng/ml,3.2%
same,increase in H2-K^b expression,MC38 cells [3]; IFN-γ 0.1 ng/ml,12.4%
same,decrease in PD-L1 expression on the cell surface,MC38 cells [3]; IFN-γ 1 ng/ml,26.1%
same,induced splice alterations shared across cancer type,[4],shared in most of the examined cells
same,aberrant splicing in the IKBKAP gene,[5],able to improve
